Assay results as given in patent US4472382A, “Treatment method” (Roussel Uclaf, priority 1979, dated 1984).
Entries after “also recorded” stand apart in the source; their conditions may differ.

Assays:
[1] = system: testicular steroidogensis; assay: Inhibitory activity against testicular steroidogenesis in men in good health, single intranasal administration; type: in vivo
Procedure: The said product was administered intranasally at a dose of 500 μg in a few drops of distilled water at 8 A.M. on the third day of the test. For 2 days prior to the treatment and for 6 days after the treatment, samples of blood were taken daily at 8 A.M., 3 P.M. and 10 P.M. On the day of administration of the LH--RH agonist, blood samples were taken at 11 A.M. and 6 P.M.
The seric concentrations of LH and FSH were measured by radioimmuno-logic dosages with double antibodies and the antibodies for measuring LH and FSH were furnished by the National Pituitary Agency of N.I.H. in Bethesda, Md. The seric concentrations of steroids was measured by radioimmuno-logic dosages in which one ml of serum was extracted with ether and the steroids were separated on a LH-20 column before measuring with radioimmuno-logic dosages. The radioimmuno-logic dosage results were determined by a program derived from model II of Rodbard et al [Second Karolinska Symposium on Research Methods in Reproductive Endrocrinology, Diczfalusky Editor, Copenhague (1970), p. 79-103]. The statistical significance was determined by the "multiple level test" of Duncan-Kramer [Kramer, Biometrics, Vol. 12 (1956), p. 307]. The results are shown in the graphs on sheet 1 of the Figures filed herewith.

[2] = system: testicular steriodogenosis; assay: Inhibitory activity on testicular steroidogenesis in a patient with prostate cancer; type: in vivo, human; conditions: intranasal 500 μg twice a day
Description: The inhibitory activity of [D Ser (Tbu)^6, des Gly NH2^10 ] […] The results are reported in the graphs of sheet 2 of the Figures.

[3] = system: ovarian steroidogenosis; assay: Inhibitory activity on ovarian steroidogenesis in women; type: in vivo
Procedure: The inhibitory activity of [D Ser (Tbu)^6, des Gly NH2^10 ] LH--RH ethylamide on ovarian steroidogenosis in women was determined on 6 women aged 26 to 35 years with normal and regular menstrual cycles and without prior endocrinal or gynecological problems. The study was conducted for 6 consecutive cycles consisting of 2 pretreatment cycles, 2 treatment cycles and 2 post-treatment cycles. Two drops of a solution containing 500 μg of [D Ser (Tbu)^6, des Gly NH2^10 ] LH--RH ethylamide were deposited on each nostril at 8 A.M. and 5 P.M. of a day between the 4th and 9th day after the peak of LH-day 0. Daily blood samples were taken between 4 and 6 P.M. to measure seric levels of LH, FSH, progesterone and estradiol which were determined by radioimmuno-logictests with double antibodies. The antibodies to measure LH and FSH were furnished by the National Pituitory Agency of N.I.H. of Bethesda, Md.
Estradiol and progesterone were measured with highly specific antibodies developed against 7-(O-carboxymethyl)-oxime of estradiol and 12-(O-carboxymethyl)-oxime of progesterone, respectively [3H] 17β-estradiol and ^125 I-progesterone-12-[O-carboxymethyl)-oxime]used as tracers. The serum was extracted with benzene and the steroids were separated with a LH-20 column before the determination. The radioimmunological results were exploited by the program derived from model II of Rodbard and Lewald as in Example 1 and the statistical significance was measured by the multiple level test of Ducan-Kramer of Example 1. The results are shown in the graphs of sheets 3 to 5 of the Figures.

[4] = men, intranasal 500 μg, 3rd day following administration
[5] = intranasal 500 μg at 8 A.M. and 5 P.M. of one day in the luteal phase, typical subject of sheet 3

With CCNC(=O)[C@@H]1CCCN1C(=O)[C@H](CCCNC(=N)N)NC(=O)[C@H](CC(C)C)NC(=O)[C@@H](COC(C)(C)C)NC(=O)[C@H](Cc1ccc(O)cc1)NC(=O)[C@H](CO)NC(=O)[C@H](Cc1c[nH]c2ccccc12)NC(=O)[C@H](Cc1c[nH]cn1)NC(=O)[C@@H]1CCC(=O)N1 [[D Ser (Tbu)^6, des Gly NH2^10] LH--RH ethylamide] the “duration of the drop of seric levels of the steroids (testosterone and its precursors)” value ([1]; human, single intranasal dose of 500 μg) was 3 days, the “diminution of the level of testosterone” value ([1]; human, single intranasal dose of 500 μg, 3rd day following administration) was 50% and the “level of testosterone / steroids on the fourth day after administration” value ([1]; human, single intranasal dose of 500 μg, fourth day (until the 6th day)) was “returned to normal; also recorded: return to normal levels”. The “concentration of 17-OH-progesterone relative to the initial control values” [1, 4] was 40%, the “concentration of testosterone relative to the initial control values” [1, 4] was 50% and the “LH and FSH plasmatic levels” value ([1]; men, intranasal 500 μg, after administration) was “increase”. For the same compound, the “seric concentration of pregnenolone, 17-OH-pregnenolone, progesterone, 17-OH-progesterone, Δ5-androstene-3β,17β-diol and testosterone” value ([1]; men, intranasal 500 μg, on the day of treatment) was “increased”, the “level of androgenic steroids” value [2] was “diminution” and the level of testosterone ([2]; two weeks of treatment) was “stabilized at a very low level”. The “progesterone level, cycles of post-treatment, % of the control values (pretreatment cycles = 100%)” value ([3]; 12 cycles of post-treatment) was 99%, the “progesterone level, cycles of treatment, % of the control values (pretreatment cycles = 100%)” value ([3]; 12 cycles of treatment) was 46% and the “level of progesterone reduced as compared to the controls” value ([3]; 12 cycles, sheet 5, scale 13 to 127%) was 46%. The “reduction of seric levels of progesterone as compared to the controls, first cycle of treatment” value [3, 5] was 13%, the “reduction of seric levels of progesterone as compared to the controls, second cycle of treatment” value [3, 5] was 34% and the “level of seric progesterone in the 2 cycles of post-treatment” value ([3]; post-treatment cycles) was “return to normal”.
